Data reported in patent US9340577B2, “HLA binding motifs and peptides and their uses” (priority 1992, dated 2016).
No end group written: not given here.

How the values were obtained:
Experiment in all cases: biochemical
Format in all cases: binding
A*2902 = A*2902 (Homo sapiens, UniProt P04439, A270S/D101N/D185E/E176V/E277Q/E87Q/F33T/G231S/H175R/I121M/I218V/I322F/K168Q/L300P/L318F/M331R/P208A/P217A/Q86L/T323A/T345S/V100A/V358M)
HLA-A1 (A*0101) = HLA-A1 (A*0101) (Homo sapiens, UniProt P04439, A114D/A174V/A182V/D101N/D185E/E176A/E190D/L180R/Q94H/R68K/S129P/T187R/V100A/V91M/W191G)
A*2601 = A*2601 (Homo sapiens, UniProt P04439, A114D/A173T/A270S/D101N/D185E/E277Q/E87N/F33Y/G231S/I121R/I218V/K168Q/L180W/L300P/L318F/P208A/P217A/Q86R/Q94H/R138Q/S129P/T187R/T323A/T345S/V100A/V358M)
A*3002 = A*3002 (Homo sapiens, UniProt P04439, D101N/D140H/D185E/E176R/F33S/G80R/H175R/K168Q/Q94H/R138E/R41S/V100E)
Chain of A*3002 (P04439 whole entry, looked up, the tested form may be a part, stated change not applied): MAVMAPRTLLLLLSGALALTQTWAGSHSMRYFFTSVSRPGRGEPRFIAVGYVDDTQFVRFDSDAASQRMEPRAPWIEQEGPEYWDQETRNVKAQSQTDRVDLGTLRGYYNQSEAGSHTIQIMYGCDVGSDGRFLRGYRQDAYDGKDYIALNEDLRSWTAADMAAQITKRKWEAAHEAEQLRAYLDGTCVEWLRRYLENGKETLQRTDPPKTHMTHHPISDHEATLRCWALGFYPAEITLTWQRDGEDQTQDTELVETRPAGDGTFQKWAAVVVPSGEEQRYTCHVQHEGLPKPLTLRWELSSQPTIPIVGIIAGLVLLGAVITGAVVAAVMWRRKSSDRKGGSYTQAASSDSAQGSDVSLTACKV

Sequence	IC50 (A*2902) [nM]	IC50 (HLA-A1 (A*0101)) [nM]	IC50 (A*2601) [nM]	IC50 (A*3002) [nM]
ISNYTDTIY [Peptide 9015.0007]	141	104	6100	36
ITDDSDIAY [Peptide 1580.14]	2100	4.2	7470	3150
ITDDSEIAY [Peptide 1593.04]	1440	20	7370	3100
KSLVKHHMY [Peptide 9015.0034]	2790	10500	> 20000	7.7
KYCWNLLQY [Peptide 1595.08]	235	> 20000	> 20000	47
LADQLIHLY [Peptide 9015.0038]	1330	4	6090	96
LMWKFDSSL [Peptide 1605.16]	2050	> 20000	> 20000	348
LSDLQDSGY [Peptide 1580.15]	> 20000	1.7	> 20000	4030
LSDMVQWAY [Peptide 1593.03]	504	21	8060	161
LSEMIQWAY [Peptide 1580.17]	187	1.5	> 20000	77
LTDDSDIAYY [Peptide 1580.12]	3980	6.4	738	293
LTDQLIHLY [Peptide 9018.0026]	178	0.53	432	2.6
LYDQLIHLY [Peptide 9018.0028]	249	177	69	21
LYDQLIHMYY [Peptide 9018.0031]	131	191	4370	38
MRDNWRSELY [Peptide 9015.0155]	6800	> 20000	> 20000	73
MSMSQWIKY [Peptide 1580.05]	7.7	229	158	1.8
NSDVKHHMY [Peptide 9018.0010]	193	3.2	8990	70
NSLVKHHMY [Peptide 9015.0033]	326	2030	> 20000	451
NTLVKHHMY [Peptide 9018.0009]	45	363	7370	69
NTPPLVKLWY [Peptide 9015.0170]	2650	18400	199	9350
QTDYYGLYY [Peptide 1593.06]	38	1.3	122	674
QTRVLAIERY [Peptide 9015.0156]	4180	6420	3310	67
RFALNPGLL [Peptide 1605.01]	> 20000	> 20000	> 20000	98
RTKNPEIVIY [Peptide 9015.0164]	> 20000	> 20000	> 20000	12
RYSTQVDPGY [Peptide 9018.0039]	> 20000	12200	> 20000	40
SFEPIPIHY [Peptide 9015.0001]	9.4	> 20000	953	191
SIDWRLRRY [Peptide 9018.0020]	3310	986	624	27
SIDWRQRRY [Peptide 9018.0018]	561	43	236	3.5
SIEWRLRRY [Peptide 9015.0035]	13100	5230	164	265
